Data from PMC8512853, “Synthesis, Bioactivity, Pharmacokinetic and Biomimetic Properties of Multi-Substituted Coumarin Derivatives” (Molecules, 2021).
pIC50: −log10 of the molar value.

Key:
[1] = tested on: A375 cells; assay: MTT cytotoxicity assay, A375; assay type: cell-based, human; conditions: Homo sapiens, A-375, 24 h, A375, 100 μΜ, read-out: Cell Toxicity A375 % (100 μΜ)
Protocol: Furthermore, the coumarin compounds synthesized in this study were also evaluated for their cytotoxicity against A549 (adenocarcinomic human alveolar basal epithelial cells) and A375 (human melanoma) cell lines.
(§1) This protocol was used for the evaluation of cell viability and all the cell lines. It must be noted that this assay describes the count of cells that remain alive after the treatment. For the experimental procedure a standard solution of MTT 1mg/mL in PBS was prepared which after filtration ([…] filter (Millipore, Carrigtwohill, Ireland)) was stored in the dark (4–8 °C) until use. In a 96-well plate, HaCaT, A549 and A375 cells were seeded in a number of 30 × 10^4 cells/well for each evaluation series respectively. The cells were incubated (37 °C, 5% CO2) for 24 h, followed by the addition of the tested analogues (100 μM, diluted in DMEM) and another 24-h incubation. Next, appropriate amount of MTT was added in the tested wells and the plate returned to the incubator for the next 4 h for the formation of the formazan crystals. The formazan crystals were then redissolved by adding DMSO (100 μL) and stirring lightly for 40 min, after which the absorbance was measured in a plate reader at 540 nm with a reference absorbance of 720 nm.
(§2) All samples were tested in triplicate, against a control (only cells), blank (no cells), and positive control (100 μM standard silibinin solution was used as a “cell-killing” standard).

[2] = Inhibition of AAPH induced linoleic acid oxidation (lipid peroxidation)
Text: AAPH induced linoleic acid oxidation has been developed as a quick and reliable antioxidant activity assay. It is based on the inhibition of linoleic acid oxidation, initiated by the thermal free radical producer 2,2′-azobis(2-amidinopropane) dihydrochloride (AAPH), providing a measure of how efficiently antioxidants protect against lipid oxidation in vitro. Oxidation of exogenous linoleic acid by AAPH is followed by UV spectrophotometry at 234 nm in a highly diluted sample [38].
For the reference sample in a UV cuvette, 10 μL of the test sample (100 μM diluted in DMSO), 10 μL linoleic acid (LA) (16 mM), and buffer solution (pH 7.4) were added to a final volume of 1ml. For the measurement sample, in a UV cuvette, 10 μL of test sample, 50 μL AAPH (40 mM), 10 μL LA, and buffer solution were added to a final volume of 1 mL. Standard and blank samples were prepared in the same way using DMSO (solvent) instead of the tested coumarin analogues. The absorbance was measured after 2 min at 37 °C at 234 nm. Results were obtained via the following Equation (5):(5) %Inhibition=(Standard−Blank)−(Reference Sample−Measurement Sample)/(Standard−Blank) × 100

[3] = MTT cell viability assay, HaCaT; assay type: cell-based, human; conditions: human, HaCaT cells, 100 μΜ, 24 h
Text: The MTT assay (3- [4,5-dimethylthiazol-2-yl] -2,5 diphenyl tetrazole) is based on the conversion of MTT to formazan crystals by living cells, which determines mitochondrial activity. Since for most cell populations total mitochondrial activity is related to the number of viable cells, this assay is widely used to measure the in vitro cytotoxic effects of drugs on various cell lines or primary cells. The principle of the MTT assay is that for most viable cells the mitochondrial activity is stable, and therefore, an increase or decrease in the number of viable cells is linearly related to mitochondrial activity. The mitochondrial activity of the cells is reflected by the conversion of the MTT tetrazole salt to formazan crystals (bright purple), which can be solubilized (in this protocol with DMSO) for homogeneous measurement. Thus, any increase or decrease in the number of viable cells can be detected by measuring the formazan concentration reflected in the optical density (OD) measurement at 540 nm with a reference absorption of 720 nm.
All the compounds were tested for their cytotoxic activity against blank and control samples in the human epidermal keratinocyte line (HaCaT), at the concentration of 100 μΜ, and the results are presented in Table 4.
as §1, §2

[4] = Hydroxyl (HO•) free radical scavenging assay (competition with DMSO)
Text: The hydroxyl (HO^•) free radical is considered as the most toxic and reactive radical among the ROS, leading to cellular or protein damage, membrane destruction, and even to cellular death when encountered in excess concentration. In this context, the evaluation of the hydroxyl radical scavenging activity of the coumarin analogues was essential. Hydroxyl radicals are mainly produced by the Haber–Weiss reaction in the presence of iron or copper ions. In this protocol, iron-EDTA solution, which catalyzes the autooxidation of ascorbic acid, was used as the hydroxyl radical generation system. In general, the hydroxyl radicals formed oxidize the DMSO to form formaldehyde. The reaction involves the initial interaction of DMSO with the hydroxyl radicals to give methyl radicals, with the final product being formaldehyde, which is determined by Nash method. The intensity of the yellow solution formed was measured at 412 nm against a reagent blank.
For the evaluation of hydroxyl radical scavenging ability, the protocol described by Kontogiorgis et al. was used. In short, each sample was tested in quadruplicate (A, B, C, D). For A and B, 10 μL of coumarin analogs diluted in DMSO (100 mM) were added; for C and D were the respective blanks. Standards (containing DMSO solution) and blanks were all prepared in a similar manner; to the latter an equal amount (10 µL) of solvent was added instead of the tested analogues. According to the protocol described by Klein et al., standard solutions of EDTA, FeCl3, ascorbic acid, and buffer solution (pH 7.4) were also added to each of the tested mixtures. All mixtures were incubated at 37 °C for 30 min, and then 1 mL of Nash solution and […] of CCl3COOH solution were added. After a 10min incubation at 60 °C to allow the formation of the yellow mixture, the absorbance was measured at […].
The results were calculated as performance percentages in relation to the respective standards and blanks according to the following Equation (4):(4) % Scavenging ability= Mean OD(A+B)−Mean OD(C+D)/Mean OD(A+B)

| Structure (SMILES) | cytotoxicity at 100 µM [1] [%] | pIC50 [2] | viability at 24 h, 100 μM [3] [%] | HO^• % (100 μΜ) scavenging [4] [%] | AAPH % inhibition (100 μΜ) [2] |
| --- | --- | --- | --- | --- | --- |
| CC(=O)Oc1cccc2oc(=O)c(-c3ccccc3Cl)c(C)c12 [Compound 3a, 5-acetyloxy-3-(2-chlorophenyl)-4-methyl-chromen-2-one] | 38.7 | 4.14 | 100 | 97.0 |  |
| CC(=O)Oc1cccc2oc(=O)c(-c3cccc(Cl)c3)c(C)c12 [Compound 3b, 5-acetyloxy-3-(3-chlorophenyl)-4-methyl-chromen-2-one] | > 60 | 4.04 | 100 | 96.4 |  |
| CC(=O)Oc1cccc2oc(=O)c(-c3ccc(Cl)cc3)c(C)c12 [Compound 3c, 5-acetyloxy-3-(4-chlorophenyl)-4-methyl-chromen-2-one] | 24.8 | 4.12 | 100 | 30.8 |  |
| CC(=O)Oc1cccc2oc(=O)c(-c3ccccc3F)c(C)c12 [Compound 3d, 5-acetyloxy-3-(2-fluorophenyl)-4-methyl-chromen-2-one] | 28.5 |  | 100 | 100 |  |
| CC(=O)Oc1cccc2oc(=O)c(-c3cccc(F)c3)c(C)c12 [Compound 3e, 5-acetyloxy-3-(3-fluorophenyl)-4-methyl-chromen-2-one] | > 60 |  | 96.5 | 85.2 | inactive and no |
| CC(=O)Oc1cccc2oc(=O)c(-c3ccc(F)cc3)c(C)c12 [Compound 3f, 5-acetyloxy-3-(4-fluorophenyl)-4-methyl-chromen-2-one] | 35.8 |  | 100 | 71.6 |  |
| CC(=O)Oc1cccc2oc(=O)c(-c3cccc(Br)c3)c(C)c12 [Compound 3g, 5-acetyloxy-3-(3-bromophenyl)-4-methyl-chromen-2-one] | 7.02 | 4.29 | 100 | 42.0 |  |
| CC(=O)Oc1ccc(-c2c(C)c3ccccc3oc2=O)cc1 [Compound 3h, 3-(4-acetyloxyphenyl)-4-methyl-chromen-2-one] | 43.2 | 4.15 | 96.2 | 100 |  |
| CC(=O)Oc1ccc(-c2c(C)c3cc(Br)ccc3oc2=O)cc1 [Compound 3i, 3-(4-acetyloxyphenyl)-6-bromo-4-methyl-chromen-2-one] | 50 to 60 | 4.15 | 100 | 64.5 |  |
| CC(=O)Oc1ccc(-c2c(C)c3cc(Cl)ccc3oc2=O)cc1 [Compound 3j, 3-(4-acetyloxyphenyl)-6-chloro-4-methyl-chromen-2-one] | 50 to 60 |  | 90.5 | 26.6 | no |
| CC(=O)Oc1ccc(-c2c(C)c3cc(Br)cc(Br)c3oc2=O)cc1 [Compound 3k, 3-(4-acetyloxyphenyl)-6,8-dibromo-4-methyl-chromen-2-one] | 28.8 |  | 100 | 92.9 | inactive and no |
| CC(=O)Oc1ccc(-c2c(C)c3ccccc3oc2=O)cc1OC(C)=O [Compound 3l, 3-(4,5-diacetyloxyphenyl)-4-methyl-chromen-2-one] | 40.4 | 4.07 | 100 | 10.7 |  |
| CC(=O)Oc1ccc(-c2c(C)c3cc(Br)ccc3oc2=O)cc1OC(C)=O [Compound 3m, 3-(4,5-diacetyloxyphenyl)-6-bromo-4-methyl-chromen-2-one] | 33.3 | 4.43 | 100 | 46.7 |  |
| CC(=O)Oc1ccc(-c2c(C)c3cc(Cl)ccc3oc2=O)cc1OC(C)=O [Compound 3n, 3-(4,5-diacetyloxyphenyl)-6-chloro-4-methyl-chromen-2-one] | 11.5 | 4.07 | 100 | 65.7 |  |
| CC(=O)Oc1ccc(-c2c(C)c3cc(Br)cc(Br)c3oc2=O)cc1OC(C)=O [Compound 3o, 3-(4,5-diacetyloxyphenyl)-6,8-dibromo-4-methyl-chromen-2-one] | 45.6 | 4.11 | 100 | 52.1 |  |
| Cc1c(-c2ccccc2Cl)c(=O)oc2cccc(O)c12 [Compound 4a, 3-(2-chlorophenyl)-5-hydroxy-4-methyl-chromen-2-one] | 33.1 |  | 100 | 37.3 | no |
| Cc1c(-c2cccc(Cl)c2)c(=O)oc2cccc(O)c12 [Compound 4b, 3-(3-chlorophenyl)-5-hydroxy-4-methyl-chromen-2-one] | 52.8 |  | 100 | 100 | no |
| Cc1c(-c2ccccc2F)c(=O)oc2cccc(O)c12 [Compound 4d, 3-(2-fluorophenyl)-5-hydroxy-4-methyl-chromen-2-one] | 11.5 |  | 100 | 21.9 | 0.0% |
| Cc1c(-c2cccc(F)c2)c(=O)oc2cccc(O)c12 [Compound 4e, 3-(3-fluorophenyl)-5-hydroxy-4-methyl-chromen-2-one] | 43.1 |  | 92.4 | 100 | 31.0% |
| Cc1c(-c2ccc(F)cc2)c(=O)oc2cccc(O)c12 [Compound 4f, 3-(4-fluorophenyl)-5-hydroxy-4-methyl-chromen-2-one] | 45.4 | 4.06 | 100 | 99.4 |  |
| Cc1c(-c2ccc(O)cc2)c(=O)oc2ccccc12 [Compound 4h, 3-(4-hydroxyphenyl)-4-methyl-chromen-2-one] | 12.6 |  | 100 | 72.2 | no |
